# The NIST ThermoML archive (doi:10.1021/je100720x)
# ± gives the expanded uncertainty stated by the source.
# Assay: osmotic coefficient (dimensionless); mn = molality of the nth substance listed, in mol/kg
# Settings: 298.15 K, Liquid, isopiestic method
compound,measurement,setting,value
CCn1cc[n+](C)c1.[Br-] [1-ethyl-3-methylimidazolium bromide] + O,osmotic coefficient,m1 = 0.5514,0.811 ± 0.011
same,osmotic coefficient,m1 = 0.6588,0.801 ± 0.011
same,osmotic coefficient,m1 = 0.6883,0.799 ± 0.011
same,osmotic coefficient,m1 = 0.7764,0.795 ± 0.011
same,osmotic coefficient,m1 = 0.9367,0.787 ± 0.011
same,osmotic coefficient,m1 = 1.04,0.786 ± 0.011
same,osmotic coefficient,m1 = 1.943,0.763 ± 0.011
same,osmotic coefficient,m1 = 2.308,0.757 ± 0.011
same,osmotic coefficient,m1 = 2.542,0.759 ± 0.011
same,osmotic coefficient,m1 = 3.189,0.763 ± 0.011
same,osmotic coefficient,m1 = 4.359,0.786 ± 0.011
same,osmotic coefficient,m1 = 5.41,0.821 ± 0.01
same,osmotic coefficient,m1 = 7.17,0.883 ± 0.01
O=P([O-])([O-])O.[K+].[K+] [dipotassium hydrogen phosphate] + O,osmotic coefficient,m1 = 0.6496,0.711 ± 0.012
same,osmotic coefficient,m1 = 0.7592,0.704 ± 0.013
same,osmotic coefficient,m1 = 1.112,0.69 ± 0.013
same,osmotic coefficient,m1 = 1.251,0.69 ± 0.013
same,osmotic coefficient,m1 = 1.604,0.689 ± 0.013
same,osmotic coefficient,m1 = 1.712,0.694 ± 0.013
same,osmotic coefficient,m1 = 1.965,0.696 ± 0.013
same,osmotic coefficient,m1 = 2.163,0.709 ± 0.013
O=P([O-])(O)O.[K+] [monopotassium phosphate] + O,osmotic coefficient,m1 = 0.6269,0.8 ± 0.011
same,osmotic coefficient,m1 = 0.9843,0.744 ± 0.012
same,osmotic coefficient,m1 = 1.113,0.731 ± 0.012
same,osmotic coefficient,m1 = 1.228,0.717 ± 0.012
same,osmotic coefficient,m1 = 1.27,0.715 ± 0.012
same,osmotic coefficient,m1 = 1.508,0.696 ± 0.013
same,osmotic coefficient,m1 = 1.707,0.68 ± 0.013
O=P([O-])([O-])[O-].[K+].[K+].[K+] [tripotassium phosphate] + O,osmotic coefficient,m1 = 0.4308,0.694 ± 0.013
same,osmotic coefficient,m1 = 0.5142,0.698 ± 0.013
same,osmotic coefficient,m1 = 0.6347,0.705 ± 0.013
same,osmotic coefficient,m1 = 0.7575,0.708 ± 0.013
same,osmotic coefficient,m1 = 0.8132,0.716 ± 0.012
same,osmotic coefficient,m1 = 1.002,0.744 ± 0.012
same,osmotic coefficient,m1 = 1.012,0.745 ± 0.012
same,osmotic coefficient,m1 = 1.241,0.778 ± 0.011
same,osmotic coefficient,m1 = 1.695,0.866 ± 0.01
same,osmotic coefficient,m1 = 1.83,0.893 ± 0.01
